Data: ChEMBL document CHEMBL3507680, “University of Dundee, Gates Library screen for HepG2 cell viability”

Assay: Human HepG2 cell viability assay in 384 well format
Format: toxicity, cell-based
Parameters: dose 125 nL, time 70.5 hour; concentration not given beside the values
Details: HepG2 cells, read-out: Inhibition

SMILES | cytotoxicity at 70.5 h
CCC(CC)c1nnc(NC(=O)N2CCC(C(N)=O)CC2)s1 | -0.155%
Cc1ccc2nc(NCCN3CCOCC3)n(C)c(=O)c2c1 | 0.444%
NC(=O)C1CCCN1Cc1ccccc1NC(=O)Cc1cccc(F)c1 (stereo unspecified) | -0.431%
CCOc1ccnc(N2CCN(C(=O)CCc3ccsc3)CC2)n1 | -7.66%
CC(C)CNC(=O)CCN1C(=O)CCc2cc(F)ccc21 | -4.13%
Cn1ncnc1NS(=O)(=O)c1ccc(F)cc1Cl | -1.04%
CCOc1ccnc(N2CCN(C(=O)CCc3ccncc3)CC2)n1 | 0.226%
CC(C(=O)N1CCc2sccc2C1)N1CCC(S(N)(=O)=O)CC1 (stereo unspecified) | -4.51%
Cc1cccc(CNc2nnc(C(C)C)o2)c1 | 0.308%
Cc1ncc(CN(C)CC(O)c2ccc(Br)cc2)s1 (stereo unspecified) | -12%
COc1ccnc(N2CCCN(C(=O)CCc3cnn(C)c3)CC2)n1 | -10.3%
CCOCc1nnc(NCc2cccnc2)o1 | -7.36%
Cn1nccc1NCc1cc2cc(F)ccc2o1 | 23.2%
CSC1(CNC(=O)c2cccc(-n3cccn3)c2)CCOCC1 | 1.71%
Cc1cc(CN(C)C(=O)CN2CCCC2=O)no1 | -15.2%
O=C(CCn1c(=O)oc2ccccc21)NCC(O)c1ccccc1 (stereo unspecified) | -3.91%
O=C(CCCNC(=O)NCC1CCCO1)Nc1ccc(Cl)cc1 (stereo unspecified) | -8.55%
CN(CCCc1cc(-c2ccc(F)cc2)n(C)n1)CC(=O)NC(N)=O | -8.03%
Cc1ncsc1CNC(=O)NCC1(c2ccc3c(c2)OCO3)CC1 | 19%
O=C(Nc1ccc(F)cc1)C1CSCN1 (stereo unspecified) | -10.2%
N#CCCN(CCN1CCOCC1)Cc1ccc(F)c(Br)c1 | -3.12%
O=C(NCCn1cccc1)c1c(O)cc(F)cc1F | -6.2%
CC(C)c1nncn1CCNC(=O)c1c(O)cc(F)cc1F | -4.67%

SMILES | cytotoxicity at 70.5 h
CC(C)(C)OC(=O)N1CCN(S(C)(=O)=O)C2(CCCCC2)C1 | -1.8%
O=C(NCC1(O)CCSC1)c1cccc(-n2cccn2)c1 (stereo unspecified) | -10.4%
CC(C)(NS(C)(=O)=O)c1nc(-c2ccncc2)no1 | 18.6%
COc1ccc(CN(CCC#N)CCN2CCOCC2)cc1OC | -10.2%
OC(CNC1CCSCC1)c1cccc(OCc2ccccc2)c1 (stereo unspecified) | 23.4%
O=C(OCc1cc(=O)n2cc(Br)ccc2n1)c1ccc2c(c1)OCO2 | -5.88%
Cc1ccc2cccc(S(=O)(=O)N(C)CC3CCN(C)CC3)c2n1 | -7.7%
Cc1ccc2cccc(S(=O)(=O)N(C)CC3CCN(C)C3)c2n1 (stereo unspecified) | -0.784%
O=C(NCC1(O)CCC1)c1cccc(-n2cccn2)c1 | -11.6%
CCC(O)CN(C)Cc1nnc2ccccn12 (stereo unspecified) | 9.61%
O=C1CN(c2ccc(CNc3cncc(-n4cccn4)n3)cc2)CCN1 | -0.149%
CC(C)(C)c1cnc(CN2CCC(NC(=O)NC3CCCCC3)CC2)o1 | 1.07%
CCCNC(=O)c1ccc(-c2ccco2)[nH]c1=O | -2.1%
CC(C)CCNC(=O)c1ccc(-c2ccco2)[nH]c1=O | -1.63%
CCc1noc(CN(CC(=O)N2CCCCC2)c2cccc(C)c2)n1 | -3.01%
Cc1nc(-c2ccco2)ccc1C(=O)N1CCc2nnc(N)cc2C1 | -1.99%
CCc1nnsc1C(=O)NC1CCN(CCOc2ccc(Br)cc2)CC1 | -4.31%
Cc1nsc(N2CCN(C(=O)Nc3cccc(C#N)c3)CC2)n1 | -0.0722%
Cc1nc(-c2ccccc2)sc1CSCCC(N)=O | 12.1%
CC(=O)Nc1ccc(F)c(S(=O)(=O)NC(C)(C)C)c1 | -6.2%
CCN1CCC2(CC1)CC(CC(=O)N(C)C)c1ccc(F)cc12 (stereo unspecified) | 33.5%
CN1CCN(Cc2cn3c(n2)CN(Cc2ccncc2)CC3)CC1 | 14%
O=C(Cc1ccsc1)N1C[C@H]2CCC[C@@]2(COCc2ccccn2)C1 | 10.5%

SMILES | cytotoxicity at 70.5 h
COCc1cnc2n1CCN(C(=O)c1cn(C)c3ccccc13)C2C (stereo unspecified) | -5.93%
O=C(CC1CC2(CCNCC2)c2ccccc21)NCC1CC1 (stereo unspecified) | 11.3%
Cn1cc(CNC2CCc3c(ccc(=O)n3C)C2)cn1 (stereo unspecified) | -2.72%
CC(C)OC[C@H]1CCC[C@]12CN(C(=O)C1CCOCC1)CCO2 | -8.49%
COC[C@@H]1CCC[C@@]12CN(C(=O)N1CCCC1)CCO2 | -12.3%
CC(=O)NCc1nnn2c1CN(c1ncccn1)CCC2 | -7.48%
O=C(C1CCOCC1)N1C[C@H]2CCC[C@@]2(COCc2ccccn2)C1 | -10.2%
Cc1ccc(CNC(=O)c2nc3c(n2C)CCN(c2ncccn2)C3)o1 | -1.28%
COc1nn(C)c2c1CCCN(C(=O)c1cscn1)C2 | 2.23%
COc1nn(C)c2c1CCCN(C(=O)c1cnccn1)C2 | 1.47%
COCC(=O)NCc1cc(=O)n2c(n1)CN(Cc1ccncc1)CCC2 | -0.67%
O=C(C1CCOCC1)N1CC[C@H](O)[C@@H]1Cc1cccnc1 | -0.0587%
CN1CCC2(CCN(C(=O)c3cccnc3)C2)C1 (stereo unspecified) | 0.955%
O=C(C1=CCCC1)N1C[C@@H]2COC[C@]2(COCc2ccncc2)C1 | -3.75%
COCCNC(=O)[C@H]1CO[C@H]2CCN(Cc3cccs3)C[C@H]2C1 | -1.82%
c1ccc(CO[C@@H]2CN(Cc3ccoc3)[C@@H]3COC[C@@H]32)nc1 | 13%
O=C(c1ccncc1)N1CCC2(CC1)CCN(C(=O)c1cccnc1)C2 | -7.65%
CCO[C@H]1CC[C@H]2[C@@H]1OCCN2C(=O)COc1ccccc1 | 27.1%
CS(=O)(=O)NC[C@]12COC[C@H]1CN(C(=O)C1CC(F)(F)C1)C2 | -2.39%
Cc1cnc(N2CCc3c(c(COc4cncnc4)nn3C)C2)nc1 | -6.03%
CN(Cc1cncnc1)[C@H]1CN(C(=O)c2ccco2)[C@@H]2CCCO[C@@H]21 | -10.9%
CN(Cc1cncnc1)[C@H]1CN(C(=O)c2ccc[nH]2)[C@@H]2CCCO[C@@H]21 | -8.37%
CS(=O)(=O)NC[C@]12COC[C@H]1CN(C(=O)C1CC=CC1)C2 | -3.37%

SMILES | cytotoxicity at 70.5 h
CNC(=O)[C@@H]1C[C@@H]2CCN(Cc3ccoc3)C[C@H]2O1 | -6.85%
O=C(c1cscn1)N1CC[C@H]2C[C@H](c3nnc(C4CC4)o3)O[C@@H]2C1 | -10.6%
CCOCCn1c(=O)[nH]c2cc(C(=O)N(C)Cc3cnn(C)c3)ccc21 | -4.48%
CSc1nccc(N2CCC3(CCCN(Cc4ccc(F)cc4)C3)C2)n1 (stereo unspecified) | -3.25%
CNc1nc(C(=O)N2CCCC(COc3ccc(F)cc3)C2)cs1 (stereo unspecified) | 3.44%
O=C(c1onc2ccccc12)N1CCC2(CCCNC2)C1 (stereo unspecified) | -16.6%
CN(Cc1csc(-c2cccs2)n1)Cc1cccnc1N | -14.6%
COCCN(Cc1ccc(C)cc1)CC1CCOC1 (stereo unspecified) | -5.9%
CCn1cnnc1CN(C)Cc1nc(-c2cc(OC)ccc2F)oc1C | -6.85%
CCCn1nc(C)c2c1NC(=O)CC2c1ccc(CN2CCCC2)s1 (stereo unspecified) | -9.08%
CCc1cnc(C)nc1NCCSc1nnc(C)n1CC | 0.501%
Cn1c(Cn2ccnc2)nnc1C1CCCN(Cc2ccncc2)C1 (stereo unspecified) | 14%
CCC(NC(=O)CCNC(=O)c1ccccc1F)c1cc(C)ccn1 (stereo unspecified) | -0.798%
CCCN(Cc1ccc(C(=O)NCC2COCCO2)c(=O)[nH]1)C1CC1 (stereo unspecified) | 50.6%
CN1CC2(CCCN(CCOCc3ccccc3)C2)OC1=O (stereo unspecified) | -3.02%
CC(C)[C@@H]1CN(C(=O)CCn2ccccc2=O)C[C@H]1NS(C)(=O)=O | -7.19%
COc1ncccc1-c1cc(C(N)=O)ccn1 | 19.5%
Cc1ccc2nc(C)cc(C(=O)N3C[C@H]4CCC[C@@]4(CO)C3)c2c1 | -6.32%
CN1CCC(Cc2nc(-c3cnccn3)n(Cc3ccccc3)n2)CC1 | -4.63%
Cc1ncccc1Oc1ncnc(N2CCCC(O)(CO)CC2)c1C (stereo unspecified) | -16.4%
O=C(c1ccc[nH]1)N1CCc2ccc(S(=O)(=O)N3CCOCC3)cc2C1 | 3.25%
COC(=O)[C@@H]1CCCN1C(=O)c1cn(C/C=C/c2ccccc2)nn1 | 24.7%
c1cncc(COC[C@@H]2CCC[C@@]23CNCCO3)c1 | 8.38%

SMILES | cytotoxicity at 70.5 h
CCOC1COC2(CCN(CC3CC3)CC2)C1 (stereo unspecified) | 11.6%
Cc1cccc(CN2C[C@@H]3COC[C@]3(CNC(=O)C3CCC3)C2)c1 | -7.15%
CS(=O)(=O)N1CCC2(CC1)CC(NCc1ccco1)c1ccccc12 (stereo unspecified) | -1.03%
CC(C)C(=O)NC1CC2(CCN(CC(=O)N(C)C)CC2)c2ccccc21 (stereo unspecified) | -2.53%
COCC(=O)NCc1cc(=O)n2c(n1)CN(C)CCC2 | -3.22%
FC1(F)CCN(Cc2ccccn2)CC12CCN(c1ncccn1)C2 (stereo unspecified) | -7.15%
COc1nn(C)c2c1CCCN(C(=O)c1cccc(C)n1)C2 | -2.8%
CCC1=N[C@@]2(CC[C@@H]3CN(Cc4ccc(C)cc4)C[C@@H]32)C(=O)N1C | -2.71%
O=C(NCc1cccs1)[C@H]1CO[C@H]2CCN(C3CCCC3)C[C@H]2C1 | 4.95%
Cn1cccc1C(=O)N1CC2(CCN(C(=O)c3cccnc3)C2)C1 | -7.36%
O=C(c1cc(C2CC2)on1)N1C[C@@H]2COC[C@]2(COc2cccnc2)C1 | -4%
CN1C[C@H](NC(=O)c2cscn2)[C@@H]2OCCC[C@@H]21 | -6.86%
COCCN1CCC2(COCc3cnc(-c4ccccc4)nc32)C1 (stereo unspecified) | -8.87%
Cn1nc(C(=O)N2CCOCC2)c2c1CN(CC1CC1)C2 | -3.11%
CN(C)CCO[C@H]1CN(Cc2ccco2)[C@@H]2COC[C@H]12 | -3.7%
CN(C)C(=O)CN1CCC2(COCc3cnc(-c4cccnc4)nc32)C1 (stereo unspecified) | -5.78%
O=C1COC2(CCN(Cc3cccnc3)CC2)CN1c1ccccc1 | -8.85%
c1cc(CO[C@@H]2CN(Cc3ccoc3)[C@@H]3CCCO[C@@H]32)ccn1 | -16%
Cc1cccc(CN2CCO[C@H]3[C@@H](OCc4ccncc4)CC[C@@H]32)n1 | -7.09%
